Results reported in US20240254087A1, “SELECTIVE, PARTIAL, AND ARRESTIN-BIASED 5-HT2A AGONISTS WITH UTILITY IN VARIOUS DISORDERS” (Saint Joseph's University, priority 2021, published 2024).
“Also recorded” adds a separate entry of the source. Where two headings read alike, the source gives them in different places.

Assays:
[1] = test system: 5-HT2A; experiment: Ca2+ flux assay, 5-HT2A; type: cell-based, human; conditions: Gq/11 Ca2+ mobilization; higher number = skewed towards 5-HT2A
Protocol: (§1) Cell lines were maintained in DMEM containing 10% FBS, 10 μg/mL Blasticidin (Invivogen), and 100 μg/mL Hygromycin B (GoldBio). At least 20-24 hours before the assay, receptor expression was induced with tetracycline ([…]) and cells were seeded into 384-well poly-L-lysine-coated black plates at a density of 7,500 cells/well in DMEM containing 1% dialyzed FBS. On the day of the assay, the cells were incubated for 1 h at 37° C. with Fluo-4 Direct dye (Invitrogen, 20 μl/well) reconstituted in drug buffer (20 mM HEPES-buffered HBSS, pH 7.4) containing 2.5 mM probenecid. Drug dilutions were prepared at 5X final concentration in McCorvy buffer (20 mM HEPES-buffered HBSS, 0).1% BSA, 0.01% ascorbic acid pH 7.4). After dye load, cells were allowed to equilibrate to room temperature for 15 minutes, and then placed in a FLIPR^TETRA fluorescence imaging plate reader (Molecular Devices). Fluorescence for the FLIPR^TETRA were programmed to read baseline fluorescence for 10 s (1 read/s), and afterward 5 μl of drug per well was added and read for a total of 5-10 min (1 read/s). Fluorescence in each well was normalized to the average of the first 10 reads for baseline fluorescence, and then either maximum-fold peak increase over basal or area under the curve (AUC) was calculated. […] Data was plotted and non-linear regression was performed using “log(agonist) vs. response” in Graphpad Prism 8 to yield Emax and EC50 parameter estimates.

[2] = test system: male C57BL/6J mice; experiment: Head-twitch response (HTR) in mice; type: in vivo, mouse; conditions: for ED50: Mus musculus
Protocol: Male C57BL/6J mice (6-8 weeks old) from Jackson Labs (Bar Harbor, ME, USA) were used for the behavioral experiments. The mice were housed on a reversed light-dark cycle (lights on at 1900 h, off at 0700 h) in an AAAC-approved vivarium at the University of California San Diego. Mice were housed up to four per cage in a climate-controlled room and with food and water provided ad libitum except during behavioral testing. Testing was performed between 1000 and 1800 h (during the dark phase of the light-dark cycle). The studies were conducted in accordance with National Institutes Health (NIH) guidelines and were approved by the University of California San Diego Institutional Animal Care and Use Committee.
The mice were allowed to recover from the magnet implantation surgeries for at least 1 week prior to behavioral testing. HTR experiments were conducted in a well-lit room, and the mice were allowed to habituate to the room for at least 1 h prior to testing. Head twitches was assessed in a 12-cm diameter glass cylinder surrounded by a magnetometer coil. Coil voltage was low-pass filtered (2 kHz), amplified, and digitized (20-kHz sampling rate) using a Powerlab/8SP with LabChart v 7.3.2 (ADInstruments, Colorado Springs, CO, USA). […] HTR counts were analyzed using one-way ANOVAs. Dunnett's test was used for post hoc comparisons.

[3] = target: T1, 5-HT2A (Homo sapiens, UniProt P28223); experiment: Ca2+ flux assay, 5-HT2A; type: cell-based; design: expressed in transfected cells
T1 sequence (P28223 whole entry): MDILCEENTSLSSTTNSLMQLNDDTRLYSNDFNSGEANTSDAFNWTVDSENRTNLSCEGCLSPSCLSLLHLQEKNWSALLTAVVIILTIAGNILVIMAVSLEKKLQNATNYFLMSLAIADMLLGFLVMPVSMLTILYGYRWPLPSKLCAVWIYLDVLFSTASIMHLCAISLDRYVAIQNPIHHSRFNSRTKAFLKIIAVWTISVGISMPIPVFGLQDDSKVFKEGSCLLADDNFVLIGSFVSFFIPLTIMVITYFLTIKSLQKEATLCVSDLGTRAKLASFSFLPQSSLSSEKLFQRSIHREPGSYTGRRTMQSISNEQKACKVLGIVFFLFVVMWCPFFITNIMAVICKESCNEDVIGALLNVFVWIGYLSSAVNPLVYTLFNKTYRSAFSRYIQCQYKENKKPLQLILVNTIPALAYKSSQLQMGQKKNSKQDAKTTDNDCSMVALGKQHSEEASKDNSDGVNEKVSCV
Protocol: as §1

[4] = target: T2, 5-HT2B (Homo sapiens, UniProt P41595); experiment: Ca2+ flux assay, 5-HT2B; type: cell-based; design: expressed in transfected cells; conditions: Ca2+ flux
T2 sequence (P41595 whole entry): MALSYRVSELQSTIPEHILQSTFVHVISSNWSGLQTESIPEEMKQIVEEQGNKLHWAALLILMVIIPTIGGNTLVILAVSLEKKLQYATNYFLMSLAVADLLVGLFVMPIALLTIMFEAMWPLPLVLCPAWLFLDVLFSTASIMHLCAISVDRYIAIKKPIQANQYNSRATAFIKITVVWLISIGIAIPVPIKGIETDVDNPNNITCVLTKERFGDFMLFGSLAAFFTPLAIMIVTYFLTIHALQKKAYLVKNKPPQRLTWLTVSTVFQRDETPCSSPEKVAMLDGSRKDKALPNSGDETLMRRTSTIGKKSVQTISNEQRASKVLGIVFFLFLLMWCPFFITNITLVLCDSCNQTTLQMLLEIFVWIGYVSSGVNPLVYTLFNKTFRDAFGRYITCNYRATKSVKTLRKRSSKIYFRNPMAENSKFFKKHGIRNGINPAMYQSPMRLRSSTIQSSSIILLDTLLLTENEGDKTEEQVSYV
Protocol: as §1

[5] = target: T3, 5-HT2C (Homo sapiens, UniProt P28335); experiment: Ca2+ flux assay, 5-HT2C; type: cell-based; design: expressed in transfected cells
T3 sequence (P28335 33-458): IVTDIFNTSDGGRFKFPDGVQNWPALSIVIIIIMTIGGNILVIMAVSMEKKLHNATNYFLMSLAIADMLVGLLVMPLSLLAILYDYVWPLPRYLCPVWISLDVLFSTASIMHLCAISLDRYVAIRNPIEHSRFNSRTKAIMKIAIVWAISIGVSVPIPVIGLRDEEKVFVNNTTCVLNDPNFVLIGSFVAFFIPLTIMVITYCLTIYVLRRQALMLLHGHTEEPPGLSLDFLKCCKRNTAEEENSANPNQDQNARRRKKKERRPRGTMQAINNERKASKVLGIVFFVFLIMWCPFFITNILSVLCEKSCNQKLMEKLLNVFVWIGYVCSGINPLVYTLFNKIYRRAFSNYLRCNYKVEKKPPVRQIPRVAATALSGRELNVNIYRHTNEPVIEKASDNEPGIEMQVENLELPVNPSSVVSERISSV
Protocol: as §1

[6] = target: T1, 5-HT2A; experiment: cell-based; design: expressed in transfected cells; host or cells: HEK293T, transient; conditions: for Emax: read-out: 5-HT2A Gq Emax (% 5-HT), BRET, mean ± SEM
Protocol: (§2) After at least 18-24 hours, transfected cells were plated in poly-lysine coated 96-well white clear bottom cell culture plates in DMEM containing 1% dialyzed FBS at a density of 25-40,000 cells in 200 μL per well and incubated overnight. After approximately 20-24 hours, media was decanted and cells were washed with 60 μL of drug buffer (1×HBSS, 20 mM HEPES, pH 7.4), followed by 60 μL of drug buffer and pre-incubated in a humidified atmosphere at 37° C. before receiving drug stimulation. Drug stimulation was induced by adding 30 μL of a solution of drug (3X) diluted in McCorvy buffer (1×HBSS, 20 mM HEPES, pH 7.4, supplemented with 0.3% BSA fatty acid free, 0.03% ascorbic acid) and plates were incubated at the indicated time and temperature. Fifteen minutes before reading, 10 μL of the RLuc substrate, either coelenterazine h for β-Arrestin recruitment BRET^1 or coelenterazine 400a for Gq dissociation BRET^2 (Prolume/Nanolight, 5 μM final concentration) was addedper well. […] The BRET ratios of fluorescence/luminescence were calculated per well and were plotted as a function of drug concentration using Graphpad Prism 8 (Graphpad Software Inc., San Diego, CA).

[7] = target: T1, 5-HT2A; experiment: cell-based; design: expressed in transfected cells; host or cells: HEK293T, transient; conditions: for Emax: read-out: 5-HT2A β-arrestin Emax (% 5-HT), BRET, mean ± SEM; for EC50: read-out: 5-HT2A β-arrestin recruitment pEC50 (converted)
Protocol: as §2

[8] = target: T2, 5-HT2B; experiment: BRET Gq dissociation, 5-HT2B; type: cell-based; design: expressed in transfected cells; host or cells: HEK293T, transient; conditions: for Emax: read-out: 5-HT2B Gq Dissociation (BRET) EMAX ± SEM (%5-HT)
Protocol: After at least 18-24 hours, transfected cells were plated in poly-lysine coated 96-well white clear bottom cell culture plates in DMEM containing 1% dialyzed FBS at a density of 25-40,000 cells in 200 μL per well and incubated overnight. After approximately 20-24 hours, media was decanted and cells were washed with 60 μL of drug buffer (1×HBSS, 20 mM HEPES, pH 7.4), followed by 60 μL of drug buffer and pre-incubated in a humidified atmosphere at 37° C. before receiving drug stimulation. Drug stimulation was induced by adding 30 μL of a solution of drug (3X) diluted in McCorvy buffer (1×HBSS, 20 mM HEPES, pH 7.4, supplemented with 0.3% BSA fatty acid free, 0.03% ascorbic acid) and plates were incubated at the indicated time and temperature. Fifteen minutes before reading, 10 μL of the RLuc substrate, either coelenterazine h for β-Arrestin recruitment BRET^1 or coelenterazine 400a for Gq dissociation BRET^2 (Prolume/Nanolight, 5 μM final concentration) was addedper well. Plates were read for luminescence at 485 nm and fluorescent eYFP emission at 530 nm for BRET^1 and at 400 nm and fluorescent GFP2 emission at 510 nm for BRET2 at 1 second per well using a Mithras LB940 (Berthold). The BRET ratios of fluorescence/luminescence were calculated per well and were plotted as a function of drug concentration using Graphpad Prism 8 (Graphpad Software Inc., San Diego, CA).

[9] = target: T3, 5-HT2C; experiment: BRET Gq dissociation, 5-HT2C; type: cell-based; design: expressed in transfected cells; host or cells: HEK293T, transient; conditions: for Emax: read-out: 5-HT2C Gq Dissociation (BRET) EMAX ± SEM (%5-HT)
Protocol: as §2

[10] = read-out: HTR ED50 μmol/kg (95% CI), SC, except DOI and 25D-NBOMe IP
[11] = read-out: HTR ED50 mg/kg (95% CI), SC, except DOI and 25D-NBOMe IP
[12] = BRET, mean ± SEM, read-out: 5-HT2A Gq dissociation pEC50 (converted)
[13] = read-out: 5-HT2B Gq Dissociation (BRET) pEC50 ± SEM (converted)
[14] = read-out: 5-HT2C Gq Dissociation (BRET) pEC50 ± SEM (converted)
[15] = SC, except DOI and 25D-NBOMe IP

SMILES | Induction of the HTR in mice (in words) [2] | Max HTR response during a 30-min assessment (maximum counts ÷ baseline response) [2] | ED50 [2, 11] [mg/kg] | Emax [6] [%] | Emax [7] [%] | Emax [8] [%] | Emax [9] [%] | EC50 ([7]; BRET, mean ± SEM) [nM] | 5-HT2B Gq Dissociation (BRET) EMAX ± SEM (%5-HT) [8] | 5-HT2B Gq Dissociation (BRET) pEC50 ± SEM [8] | 5-HT2C Gq Dissociation (BRET) EMAX ± SEM (%5-HT) [9] | 5-HT2C Gq Dissociation (BRET) pEC50 ± SEM [9] | other results
COc1cc([N+](=O)[O-])c(OC)cc1CCNCc1ccccc1OC(F)F [25N-NBOCF2H (11), {[2-(difluoromethoxy)phenyl]methyl}[2-(2,5-dimethoxy-4-nitrophenyl)ethyl]amine] | lacked a HTR; also recorded: failed to induce a HTR | 13.5-fold increase | 1.81 |  |  |  |  |  |  |  |  |  | 5-HT2A/5-HT2c Selectivity Factor ΔLog(Emax/EC50) [1]: 1.9; ED50 [2, 10]: 4.32 µmol/kg; EC50 ([3]; 5-HT2A EC50, nM, Ca2+ flux): 1.92 nM; 5-HT2A Emax % 5-HT ([3]; Ca2+ flux): 95 ± 1 % 5-HT; Emax ([3]; read-out: 5-HT2A Emax % 5-HT, Ca2+ flux): ≤ 77%; 5-HT2B EC50, nM [4]: No activity; Emax ([4]; read-out: 5-HT2B Emax % 5-HT): < 10%; EC50 ([5]; 5-HT2C EC50, nM): 3.99 nM; Emax ([5]; read-out: 5-HT2C Emax % 5-HT): 101 ± 1%
COc1cc(OC)c(OC)cc1CCNCc1cccc(I)c1 [(53), N-(3-iodobenzyl)-2-(2,4,5-trimethoxyphenyl)-ethan-1-amine] | failed to induce the HTR | 1.1-fold increase | > 30 | 50.1 ± 1.9 | 82.7 ± 5.4 | 20.3 ± 2.8 | 91.5 ± 3.2 |  |  |  |  |  | EC50 [8]: 0.724 nM; EC50 [9]: 15.1 nM
COc1cc(OC)c(OC)cc1CCNCc1ccccc1-c1cccs1 [(59), N-(2-(thiophen-2-yl)benzyl)-2-(2,4,5-trimethoxyphenyl)-ethan-1-amine] | lacked a HTR | 1.6-fold increase | > 30 | 34.9 ± 1.6 | 100 ± 3.5 |  |  | 8.51 | No activity | No Activity | No Activity | No Activity | EC50 [6, 12]: 24 nM
COc1cc(OC)c(OC)cc1CCNCc1ccccc1OCc1ccccc1 [(61)] | lacked a HTR; also recorded: do not induce the HTR | 1.4-fold increase | > 30 | < 10 | 72.9 ± 4.2 |  |  | 3.31 | No activity | No activity | No Activity | No Activity | 5-HT2A Gq dissociation pEC50 ([6]; BRET, mean ± SEM): No activity
COc1cc(OC)c(OC)cc1CCNCc1ccccc1-c1ccc(O)cc1 [(64)] |  | 2.1-fold increase | > 30 | 43.6 ± 2.5 | 80.5 ± 5.5 | 29.2 ± 10.6 | 80.6 ± 9.8 | 11.7 |  |  |  |  | EC50 [6]: 617 nM; EC50 [8, 13]: 3020 nM; EC50 [9, 14]: 1700 nM
COc1cc(CCN)c(OC)cc1I [Compound 2C-I, reference compound] |  | 13.8-fold increase |  |  |  |  |  |  | 101.0 ± 2.1 %5-HT | 7.72 ± 0.07 | 106.9 ± 1.5 %5-HT | 9.34 ± 0.05 | HTR ED50 μmol/kg (95% CI) [2, 15]: 2.42 (1.46-4.02) μmol/kg; HTR ED50 mg/kg (95% CI) [2, 15]: 0.83 (0.50-1.38) mg/kg; 5-HT2A Gq Emax (% 5-HT) ([6]; BRET, mean ± SEM): 93.4 ± 1.4 % 5-HT; 5-HT2A Gq dissociation pEC50 ([6]; BRET, mean ± SEM): 8.83 ± 0.05; 5-HT2A β-arrestin Emax (% 5-HT) ([7]; BRET, mean ± SEM): 74.3 ± 1.6 % 5-HT; 5-HT2A β-arrestin recruitment pEC50 ([7]; BRET, mean ± SEM): 8.25 ± 0.07
COc1cc(CCNCc2ccccc2OC)c(OC)cc1I [Compound 25I-NBOMe, reference compound] |  | 16.0-fold increase | 0.078 |  | 137 ± 3.7 | 78.6 ± 2.6 | 124 ± 3.1 | 0.525 |  |  |  |  | ED50 [2, 10]: 0.17 µmol/kg; 5-HT2A Gq Emax (% 5-HT) ([6]; BRET, mean ± SEM): 99.8 ± 1.2 % 5-HT; EC50 [6, 12]: 0.355 nM; EC50 [8, 13]: 3.39 nM; EC50 [9, 14]: 0.0977 nM
